Experimental data published in patent US12396964B2 (Shinkei Therapeutics, Inc., priority 2021, dated 2025).
Counter-ions that a name gives are not always drawn.

Key:
clinical = conditions: human, in vivo
Experimental: The subjects received the test treatments as described in Table 1 below, under direct observation following an overnight fast of at least 10 hours.
Plasma concentrations of amantadine increased rapidly and reached maximum plasma concentrations at around 3 hours after start of the IV infusion.
The plasma amantadine concentrations from healthy adults enrolled in the open-label, multiple-cohort, single-period non-randomized single-ascending dose study of Example 1 were used to determine the decrease in concentration of amantadine over time, after the administration of the first dose of 100 mg and 150 mg in different cohorts. The data is supportive in determining the timing of the second dose of amantadine.

[1] = Safety and tolerability study of amantadine hydrochloride IV solution 200 mg with plasma sampling in healthy adult subjects (Example 2); assay type: in vivo, human; conditions: 200 mg IV
Experimental: 4 mL venous blood was collected before dosing (0 hour) and at the following nominal times after dosing: 0.5, 1, 2, 3, 4, 5, 5.5, 6, 7, 9, 12, 16, 24, 36, 48 and 72 hours post-dose. Safety was assessed by qualified study staff by evaluating the following: reported adverse events, clinical laboratory test results, vital sign measurements, ECG findings, physical examination findings at screening and clinic exit (including body weight and height measurements), and concomitant medication usage. The blood samples collected were used to assess the decrease in concentration of amantadine in the plasma over time, and is tabulated in Table 3 below.

[2] = Applicants' finding on safety of the intravenous dose, volume and rate of administration
Experimental: As discussed above, the volume of fluid is not only critical in terms of increase in ICP, but it is also critical in terms of defining the time of administration of the dose, and therefore, the rate of administration of the dose. […] Each dose is administered over a period of 180 minutes, i.e. at a rate of about 1.39 ml/min.

Q: With `NC12CC3CC(CC(C3)C1)C2` [amantadine hydrochloride] as the compound, how does the half-life (clinical; both sexes, iv, T1/2) read?
A: Its half-life is 11.4 h.

Q: And the Tmax (clinical; both sexes, iv, Tmax)?
A: The Tmax was 3 h.

Q: And the half-life (clinical; both sexes, iv, half-life (T½))?
A: Its half-life is 11 to 15 h.

Q: What about the Tmax (clinical; both sexes, iv, maximum plasma concentration (Tmax)) of the same compound?
A: The Tmax was 3 to 4 h.

Q: What about the half-life (clinical; both sexes, iv, mean elimination half-life) of the same compound?
A: The half-life was 11.5 to 14.5 h.

Q: And the “increase of AUC0-28, more than proportional to the dose” value (clinical; both)?
A: The value was ~3 fold.

Q: And the “increase of Cmax, more than proportional to the dose” value (clinical; both)?
A: The value was ~2.3 fold.

Q: What about the Tmax (clinical; both, iv) of the same compound?
A: The Tmax was 3.25 h.

Q: And the “plasma levels remained detectable post-dose” value (clinical; both, iv, 3 h)?
A: The value was 48 to 72 h.

Q: What about the “% decrease in plasma amantadine concentration” value (from here on “% decrease”) ([1]; 0 hr after first dose) of the same compound?
A: Its value is 0.0%.

Q: And the “% decrease” value ([1]; 1 hr after first dose)?
A: The value was 14.0%.

Q: And the “% decrease” value ([1]; 2 hr after first dose)?
A: The value was 20.9%.

Q: What about the “% decrease” value ([1]; 2.5 hr after first dose) of the same compound?
A: Its value is 24.5%.

Q: And the “% decrease” value ([1]; 3 hr after first dose)?
A: The value was 26.2%.

Q: And the “% decrease” value ([1]; 4 hr after first dose)?
A: Its value is 30.0%.

Q: And the “% decrease” value ([1]; 6 hr after first dose)?
A: The value was 34.5%.

Q: And the “% decrease” value ([1]; 9 hr after first dose)?
A: The value was 48.3%.

Q: And the “safety of the dose” value ([2]; about 100 mg to about 200 mg in a volume of 250 ml as a single dose, over 180 minutes, twice a day)?
A: Its value is “safe”.

Q: And the “safety of the rate of administration” value ([2]; rate ranging between 0.5 mg/min to about 1.2 mg/min)?
A: The value was “safe”.
